Where “and” joins values, the source holds several entries; their conditions need not be identical. Identical values can stand only once. Like-named read-outs stand apart in the source and are kept apart here.
Columns and labels:
[1] = tested on: PC3 prostate cancer cells; experiment: Cell Titer Glo proliferation assay in PC3; assay type: cell-based, human; settings: for IC50: Cell Titer Glo, 72 h, Mean ± SEM, n ≥ 3, read-out: IC50 values in prostate cancer cell lines, PC3; for activity in the prostate cancer cell proliferation assay (in words): PC3 and DU145, Cell Titer Glo
How it was run: (§1)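 Cells plated at 1,000 cells/well and left at least 24 h, then exposed to compound for 72 h. Permeabilised with 0.1% Triton-X100, lysed with Cell Titer-Glo reagent, luminescence read; IC50 from dose-response curves. PC3 grown in F12K with 10% FCS, DU145 in MEM with 10% FCS and pyruvate.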

[2] = tested on: DU145 prostate cancer cells; experiment: Cell Titer Glo proliferation assay in DU145; assay type: cell-based, human; settings: Mean ± SEM, n ≥ 3, read-out: IC50 values in prostate cancer cell lines, DU145
How it was run: as §1

[3] = tested on: PC3 prostate cancer cells; experiment: Cell viability by vital dye exclusion and flow cytometry in PC3; assay type: cell-based, human; settings: vital dye exclusion (DAPI) and flow cytometry, 72 h
Protocol: Thus, to determine whether analogues in accordance with embodiments of the invention are cytotoxic, studies were conducted using vital dye exclusion and flow cytometry (Table 2).
(§2) Viability assays: Cell Titer Glo assays (Cell Titer Glo Luminescent Cell Viability Assay kit, cat #G7571, Promega Corporation) are performed in clear bottom 96-well black cell culture plates (cat #655090, Greiner Bio-One, NC, USA). After plating at 1,000 cells/well in volume of 100 μl, cells are left undisturbed for at least 24 h before drug addition. After 72 h, cells are prepared for analysis by adding 10 μl of 0.1% Triton-X100 in PBS with shaking for 1 min at room temperature (RT). Cell Titer-Glo cell lysis reagent (20 μl) is then added followed by 1 min of shaking and a 10 min incubation in the dark at RT. Luminescence is detected using an IVIS imaging system (IVIS Lumina II, Perkin Elmer, USA). […] IC50s are determined using GraphPad Prism (GraphPad Software, Inc, La Jolla, Calif.). SupB-15 viability was determined by flow cytometry. Cell Titer Glo assays were performed with the other cell lines.

[4] = tested on: Colon (SW-620) cancer cell line; experiment: IC50 in cancer cell lines (Table 3), colon; assay type: cell-based, human; settings: Mean ± SEM, n ≥ 3
Protocol: (§3) Having observed a suitable potency of some embodiments of the invention, including, at least with compounds 3-6, 14 in prostate cancer cell lines, other cancer cell lines were tested with these compounds. […] Compounds that were active in prostate cancer cell lines also killed BCR-Abl-positive leukemia cells with similar potency to FTY720.
(§4) Cell culture studies: Sup-B15 cells are maintained at 2-3 million/mL in RPMI 1640 (Mediatech) supplemented with 10% fetal calf serum (FCS, Sigma-Aldrich), 10 mM Hepes (Mediatech), 55 μM β-mercaptoethanol (Sigma-Aldrich), 2 mM L-glutamine (Mediatech), and antibiotics. All adherent cells are maintained at 70-80% confluence. Cell are cultured in the following media: PC3 & A549, Ham's F12K (Corning Cell Gro) supplemented with 10% FCS and antibiotics; DU145 cells, MEM (Corning Cell Gro) supplemented with 10% FCS, 1 mM sodium pyruvate (Mediatech), and antibiotics; SW620 & MDA-MB-231, DMEM (Corning Cell Gro) with 10% FCS, 1 mM sodium pyruvate (Mediatech), and antibiotics; Panc-1 cells, DMEM (Corning Cell Gro) supplemented with 10% FCS and antibiotics. All of the above cell lines are available from the ATCC.
as §2

[5] = tested on: Lung (A-549) cancer cell line; experiment: IC50 in cancer cell lines (Table 3), lung; assay type: cell-based, human; settings: Mean ± SEM, n ≥ 3
Protocol: as §3, §4, §2

[6] = tested on: Pancreas (PANC-1) cancer cell line; experiment: IC50 in cancer cell lines (Table 3), pancreas; assay type: cell-based, human; settings: Mean ± SEM, n ≥ 3
Protocol: as §3, §4, §2

[7] = tested on: Breast (MDA-MB-231) cancer cell line; experiment: IC50 in cancer cell lines (Table 3), breast; assay type: cell-based, human; settings: Mean ± SEM, n ≥ 3
Protocol: as §3, §4, §2

[8] = tested on: Leukemia (SupB-15) cells; experiment: IC50 in cancer cell lines (Table 3), leukemia; assay type: cell-based, human; settings: flow cytometry, Mean ± SEM, n ≥ 3
Protocol: as §3, §4, §2

[9] = tested on: CD98 (4F2hc, SLC3A2); experiment: Surface CD98 nutrient transporter down-regulation by flow cytometry; assay type: cell-based, murine; settings: FL5.12 cells, surface CD98 at 3 h, flow cytometry, mean ± SEM, n ≥3
Source text: In an exemplified study, nutrient transporter down-regulation was monitored by quantifying surface levels of the amino acid transporter-associated protein, CD98, by flow cytometry. Vacuolation was scored in a range from 0 to […], as determined by a vacuolation assay described in greater detail in the Materials and Methods section below.
Cell culture studies: FL5.12 cells (murine hematopoetic cells originally obtained from Craig Thompson, Memorial Sloan Kettering Cancer Center) were maintained at 0.1-0.5 million/ml in RPMI 1640 (Mediatech) supplemented with 10% fetal calf serum (FCS, Sigma-Aldrich), 10 mM Hepes (Mediatech), 500 pg/ml recombinant IL-3 (cat #575502, Biolegend), 55 μM β-mercaptoethanol (Sigma-Aldrich), 2 mM L-glutamine (Mediatech), and antibiotics. Cells were screened for Mycoplasma every 3 months using the Look-Out Mycoplasma PCR Detection kit (cat #MP0035, Sigma).
Nutrient transporter expression: Surface CD98 (4F2hc, SLC3A2) expression was measured at 3 h using phycoerythrin (PE)-conjugated rat anti-mouse CD98 antibody (Biolegend, cat #128208); analysis was restricted to viable cells. PE conjugated Rat IgG2a, k (cat #400508, Biolegend) was used as an isotype control. For staining, 200,000 cells were pelleted, re-suspended in 100 μl FACS block (PBS with 10% FCS and 0.05% NaN3) containing 0.25 μL anti-CD98 antibody, incubated on ice for 30 min, washed twice with 1 ml FACS wash (PBS containing 2% FCS and 0.05% NaN3), and analyzed on a BD LSR II flow cytometer. Data was processed with FlowJo software (Treestar).

SMILES	IC50 ([1]; Homo sapiens) [µM]	IC50 ([2]; Homo sapiens, DU-145, 72 h) [µM]	IC50 ([3]; Homo sapiens) [µM]	IC50 ([4]; Homo sapiens, SW-620) [µM]	IC50 ([5]; Homo sapiens, A549) [µM]	IC50 ([6]; Homo sapiens, PANC-1) [µM]	IC50 ([7]; Homo sapiens, MDA-MB-231) [µM]	IC50 ([8]; Homo sapiens, SUP-B15) [µM]	% CD98 down-regulation [9] [%]	IC50 [1] [µM]	activity in the prostate cancer cell proliferation assay (in words) [1]	IC50 ([2]; 72 h) [µM]	IC50 [3] [µM]	IC50 [4] [µM]	IC50 [5] [µM]	IC50 [6] [µM]	IC50 [7] [µM]	IC50 [8] [µM]	% CD98 down-regulation ([9]; listed as 104)
CCCCCCCCc1ccc(CCC(N)(CO)CO)cc1.Cl [FTY720, 2-Amino-2-[2-(4-octylphenyl)ethyl]propane 1,3-diol hydrochloride, reference compound]	2.6 ± 0.2	3.1 ± 0.2	4.8 ± 0.1	2.8 ± 0.1	6 ± 0.4	4.6 ± 0.5	4 ± 0.1	6.8 ± 0.7	68 ± 3										
CCCCCCCCc1ccc([C@@H]2CCN[C@H]2CO)cc1.Cl [Compound 6]										3 ± 0.4	as active as FTY720	3.7 ± 0.4	5.4 ± 0.6	2.1 ± 0.2	8.4 ± 1.2	5 ± 0.9	4.9 ± 0.6	5.9 ± 0.1	
CCCCCCCCc1ccc([C@H]2CCN[C@@H]2CO)cc1.Cl [Compound 5, (2S,3R)-2-(hydroxymethyl)-3-(4-octylphenyl)Pyrrolidinium chloride]	4 ± 0.7	3.8 ± 0.4	5.5 ± 0.4	2.5 ± 0.1	8.9 ± 1.4	3.3 ± 0.5	2.1 ± 0.2	5.1 ± 0.9			as active as FTY720								54% and 54 ± 1%

Reference: patent publication US10995068B2, “Synthetic sphingolipid-like molecules, drugs, methods of their synthesis and methods of treatment” (The Regents of the University of California, priority 2015, dated 2021)
